Data reported in patent publication US9309242B2, “Substituted pyrido[2,3-b]pyrazines as FGFR kinase inhibitors” (priority 2011, dated 2016).

How the values were obtained:
FGFR1 (h) = FGFR1 (h) (Homo sapiens, UniProt P11362); experiment: FGFR1 (enzymatic assay), TR-FRET; assay type: biochemical; settings: read-out: FGFR 1 pIC50 (converted)
FGFR2 (h) = FGFR2 (h) (Homo sapiens, UniProt P21802); experiment: FGFR2 (enzymatic assay), TR-FRET; assay type: biochemical; settings: enzymatic assay; read-out: FGFR 2 pIC50 (converted)
Method in brief: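 Human FGFR2 (150 ng/ml) was incubated with 500 nM Btn-Flt3 substrate and 0.4 μM ATP in 50 mM HEPES pH 7.5, 6 mM MnCl2, 1 mM DTT, 0.1 mM Na3VO4, 0.01% Triton-X-100. Compound was present at 1% DMSO final.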

FGFR3 (h) = FGFR3 (h) (Homo sapiens, UniProt P22607); experiment: FGFR3 (enzymatic assay), TR-FRET; assay type: biochemical; settings: read-out: FGFR 3 pIC50 (converted)
From the text: Time-Resolved Fluorescence Resonance Energy Transfer (TR-FRET) signal (ex340 nm.

FGFR4 (h) = FGFR4 (h) (Homo sapiens, UniProt P22455); experiment: FGFR4 (enzymatic assay), TR-FRET; assay type: biochemical; settings: FGFR 4 pIC50, enzymatic assay
KDR (h) = KDR (h) (Homo sapiens, UniProt P35968); experiment: KDR (VEGFR2) (enzymatic assay), TR-FRET; assay type: biochemical; settings: read-out: VEGFR 2 (KDR) pIC50 (converted)
Method in brief: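 First, kinase (150 ng/ml), Btn-Flt3 (500 nM), ATP (3 μM) and compound (1% DMSO) react 120 min at RT in pH 7.5 HEPES/6 mM MnCl2. Next, EDTA with Eu-anti-P-Tyr and SA-XL-665 stops it for 60 min. Finally, TR-FRET is read as RFU.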

[1] = molecular target: T1, Ba/F3-FGFR1-transfected cells (Homo sapiens, UniProt P11362); experiment: Ba/F3-FGFR1 (minus IL3) cellular proliferation assay, Alamar Blue; assay type: cell-based
T1 construct: BAF3-FGFR1 (MIN IL3) pIC50; other: minus IL3
Method in brief: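 Ba/F3 cells transfected with FGFR1 (20000 cells/well) were plated onto compound in phenol red-free RPMI-1640 with 10% FBS, 2 mM L-glutamine and gentamycin, then kept 24 h at 37 °C, 5% CO2. Alamar Blue (resazurin) was added for 4 h and fluorescence read at ex 540/em 590 nm.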

[2] = tested on: Ba/F3-FGFR1-transfected cells; experiment: Ba/F3-FGFR1 (plus IL3) cellular proliferation assay, counterscreen with 10 ng/ml murine IL3; assay type: cell-based; settings: plus IL3 (10 ng/ml murine IL3, counterscreen); read-out: BAF3-FGFR1 (PLUS IL3) pIC50 (converted)
Method in brief: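 Ba/F3-FGFR1 cells (20000/well) in RPMI-1640 with 10% FBS exposed to compound for 24 h at 37° C., 5% CO2, then Alamar Blue (resazurin) added for 4 h; fluorescence read at ex 540/em 590 nm. Counterscreen run identically with 10 ng/ml murine IL3.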

[3] = molecular target: T2, Ba/F3-FGFR3-transfected cells (Homo sapiens, UniProt P22607); experiment: Ba/F3-FGFR3 (minus IL3) cellular proliferation assay, Alamar Blue; assay type: cell-based
T2 construct: BAF3-FGFR3 (MIN IL3) pIC50; other: minus IL3
Method in brief: (§1)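 Ba/F3 cells transfected with FGFR3 were seeded at 20000 cells/well in phenol red-free RPMI-1640 with 10% FBS over compound in DMSO and kept 24 hours at 37° C, 5% CO2. Alamar Blue (resazurin) was then added for 4 hours and fluorescence read at ex 540/em 590 nm. The counterscreen repeated this with 10 ng/ml murine IL3.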

[4] = tested on: Ba/F3-FGFR3-transfected cells; experiment: Ba/F3-FGFR3 (plus IL3) cellular proliferation assay, counterscreen with 10 ng/ml murine IL3; assay type: cell-based; settings: plus IL3 (10 ng/ml murine IL3, counterscreen); read-out: BAF3-FGFR3 (PLUS IL3) pIC50 (converted)
Method in brief: as §1

[5] = molecular target: T3, Ba/F3-KDR-transfected cells (Homo sapiens, UniProt P35968); experiment: Ba/F3-KDR (minus IL3) cellular proliferation assay, Alamar Blue; assay type: cell-based
T3 construct: BAF3-KDR (MIN IL3) pIC50; other: minus IL3
Method in brief: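 Proliferation is measured as Alamar Blue relative fluorescence units following 24 h compound treatment of 20000 cells per well in 10% FBS medium. The IL3-supplemented run serves as a counterscreen under the same conditions.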

Sequence of FGFR4 (h) (P22455 22-802): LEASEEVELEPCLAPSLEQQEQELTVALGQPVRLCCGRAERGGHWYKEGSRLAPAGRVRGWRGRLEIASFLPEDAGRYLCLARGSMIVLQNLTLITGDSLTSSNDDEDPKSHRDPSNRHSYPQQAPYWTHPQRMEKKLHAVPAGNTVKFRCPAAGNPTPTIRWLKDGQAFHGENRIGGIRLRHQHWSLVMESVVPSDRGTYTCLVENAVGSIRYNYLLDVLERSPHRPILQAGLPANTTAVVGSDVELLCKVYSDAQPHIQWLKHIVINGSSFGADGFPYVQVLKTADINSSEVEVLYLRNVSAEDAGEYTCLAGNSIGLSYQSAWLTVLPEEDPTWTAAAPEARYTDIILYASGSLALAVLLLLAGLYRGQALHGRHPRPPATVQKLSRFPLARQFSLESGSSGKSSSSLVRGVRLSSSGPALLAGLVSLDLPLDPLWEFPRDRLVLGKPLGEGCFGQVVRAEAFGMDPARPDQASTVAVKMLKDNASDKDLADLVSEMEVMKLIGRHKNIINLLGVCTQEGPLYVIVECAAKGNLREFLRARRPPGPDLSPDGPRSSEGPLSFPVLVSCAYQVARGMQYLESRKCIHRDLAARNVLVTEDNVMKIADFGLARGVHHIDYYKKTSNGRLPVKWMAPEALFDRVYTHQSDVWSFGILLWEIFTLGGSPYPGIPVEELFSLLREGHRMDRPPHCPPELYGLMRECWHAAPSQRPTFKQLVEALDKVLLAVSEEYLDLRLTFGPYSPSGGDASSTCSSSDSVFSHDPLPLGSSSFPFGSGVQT
T2 sequence (P22607 whole entry, change not shown): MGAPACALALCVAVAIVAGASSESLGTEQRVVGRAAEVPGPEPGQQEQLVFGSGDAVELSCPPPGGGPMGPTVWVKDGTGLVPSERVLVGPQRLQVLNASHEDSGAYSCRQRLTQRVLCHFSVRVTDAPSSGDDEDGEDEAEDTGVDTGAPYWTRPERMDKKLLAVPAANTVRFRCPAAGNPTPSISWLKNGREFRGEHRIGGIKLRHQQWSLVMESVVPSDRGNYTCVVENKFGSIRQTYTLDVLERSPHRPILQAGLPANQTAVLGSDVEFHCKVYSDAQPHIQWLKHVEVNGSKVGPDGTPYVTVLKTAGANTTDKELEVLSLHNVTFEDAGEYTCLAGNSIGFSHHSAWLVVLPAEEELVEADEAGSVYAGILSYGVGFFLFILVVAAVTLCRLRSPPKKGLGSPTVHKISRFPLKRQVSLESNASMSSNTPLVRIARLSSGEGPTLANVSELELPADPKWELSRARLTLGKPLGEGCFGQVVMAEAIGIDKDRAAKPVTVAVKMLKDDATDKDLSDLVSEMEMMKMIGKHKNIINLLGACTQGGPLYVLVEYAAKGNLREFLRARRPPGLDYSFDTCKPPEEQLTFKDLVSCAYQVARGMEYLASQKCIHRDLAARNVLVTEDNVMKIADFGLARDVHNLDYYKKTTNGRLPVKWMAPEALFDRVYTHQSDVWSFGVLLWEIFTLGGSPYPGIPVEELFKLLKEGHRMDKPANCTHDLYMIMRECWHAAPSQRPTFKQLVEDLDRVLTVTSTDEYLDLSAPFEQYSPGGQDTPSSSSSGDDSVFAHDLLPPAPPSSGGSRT
T1 sequence (P11362 whole entry, change not shown): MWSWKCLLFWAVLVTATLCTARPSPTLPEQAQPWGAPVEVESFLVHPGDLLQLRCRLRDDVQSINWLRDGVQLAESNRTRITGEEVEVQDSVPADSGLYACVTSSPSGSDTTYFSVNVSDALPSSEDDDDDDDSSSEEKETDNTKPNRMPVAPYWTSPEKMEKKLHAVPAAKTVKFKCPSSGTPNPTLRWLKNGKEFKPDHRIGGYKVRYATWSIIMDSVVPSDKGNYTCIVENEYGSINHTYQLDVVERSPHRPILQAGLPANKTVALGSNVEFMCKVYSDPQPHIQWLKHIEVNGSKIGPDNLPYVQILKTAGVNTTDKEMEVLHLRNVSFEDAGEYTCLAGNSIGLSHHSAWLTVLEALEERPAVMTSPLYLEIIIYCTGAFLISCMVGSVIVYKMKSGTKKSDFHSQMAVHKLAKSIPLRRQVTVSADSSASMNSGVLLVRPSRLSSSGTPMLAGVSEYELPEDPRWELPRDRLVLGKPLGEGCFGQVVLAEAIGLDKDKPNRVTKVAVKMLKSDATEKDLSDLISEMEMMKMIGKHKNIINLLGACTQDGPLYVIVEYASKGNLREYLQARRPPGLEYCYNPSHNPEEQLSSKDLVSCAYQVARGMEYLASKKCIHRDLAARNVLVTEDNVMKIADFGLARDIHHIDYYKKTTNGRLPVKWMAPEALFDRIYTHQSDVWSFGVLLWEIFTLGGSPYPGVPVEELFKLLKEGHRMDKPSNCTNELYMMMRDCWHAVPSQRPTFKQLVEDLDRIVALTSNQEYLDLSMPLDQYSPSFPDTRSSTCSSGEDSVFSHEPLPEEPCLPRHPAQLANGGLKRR
Sequence of FGFR2 (h) (P21802 22-821): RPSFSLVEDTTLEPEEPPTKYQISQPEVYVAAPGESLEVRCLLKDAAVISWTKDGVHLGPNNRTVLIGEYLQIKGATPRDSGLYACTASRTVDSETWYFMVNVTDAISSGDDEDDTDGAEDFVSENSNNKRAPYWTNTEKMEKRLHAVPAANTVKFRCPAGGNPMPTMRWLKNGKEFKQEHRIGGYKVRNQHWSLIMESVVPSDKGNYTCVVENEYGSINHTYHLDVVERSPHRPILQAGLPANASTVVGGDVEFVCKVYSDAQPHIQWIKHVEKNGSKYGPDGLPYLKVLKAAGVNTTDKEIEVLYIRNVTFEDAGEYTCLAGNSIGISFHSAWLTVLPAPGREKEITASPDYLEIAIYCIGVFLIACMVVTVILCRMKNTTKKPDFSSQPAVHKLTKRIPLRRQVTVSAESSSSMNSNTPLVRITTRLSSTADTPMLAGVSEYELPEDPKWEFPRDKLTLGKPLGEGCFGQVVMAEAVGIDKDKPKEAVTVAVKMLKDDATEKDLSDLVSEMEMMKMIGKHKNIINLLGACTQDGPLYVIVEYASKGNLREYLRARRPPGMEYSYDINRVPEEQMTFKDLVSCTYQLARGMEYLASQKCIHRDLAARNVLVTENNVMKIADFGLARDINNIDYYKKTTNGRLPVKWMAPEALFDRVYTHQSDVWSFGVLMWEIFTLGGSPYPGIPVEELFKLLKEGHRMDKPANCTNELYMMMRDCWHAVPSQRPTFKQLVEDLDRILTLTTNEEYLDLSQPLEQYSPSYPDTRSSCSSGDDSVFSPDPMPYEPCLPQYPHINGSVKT
Sequence of FGFR1 (h) (P11362 22-822): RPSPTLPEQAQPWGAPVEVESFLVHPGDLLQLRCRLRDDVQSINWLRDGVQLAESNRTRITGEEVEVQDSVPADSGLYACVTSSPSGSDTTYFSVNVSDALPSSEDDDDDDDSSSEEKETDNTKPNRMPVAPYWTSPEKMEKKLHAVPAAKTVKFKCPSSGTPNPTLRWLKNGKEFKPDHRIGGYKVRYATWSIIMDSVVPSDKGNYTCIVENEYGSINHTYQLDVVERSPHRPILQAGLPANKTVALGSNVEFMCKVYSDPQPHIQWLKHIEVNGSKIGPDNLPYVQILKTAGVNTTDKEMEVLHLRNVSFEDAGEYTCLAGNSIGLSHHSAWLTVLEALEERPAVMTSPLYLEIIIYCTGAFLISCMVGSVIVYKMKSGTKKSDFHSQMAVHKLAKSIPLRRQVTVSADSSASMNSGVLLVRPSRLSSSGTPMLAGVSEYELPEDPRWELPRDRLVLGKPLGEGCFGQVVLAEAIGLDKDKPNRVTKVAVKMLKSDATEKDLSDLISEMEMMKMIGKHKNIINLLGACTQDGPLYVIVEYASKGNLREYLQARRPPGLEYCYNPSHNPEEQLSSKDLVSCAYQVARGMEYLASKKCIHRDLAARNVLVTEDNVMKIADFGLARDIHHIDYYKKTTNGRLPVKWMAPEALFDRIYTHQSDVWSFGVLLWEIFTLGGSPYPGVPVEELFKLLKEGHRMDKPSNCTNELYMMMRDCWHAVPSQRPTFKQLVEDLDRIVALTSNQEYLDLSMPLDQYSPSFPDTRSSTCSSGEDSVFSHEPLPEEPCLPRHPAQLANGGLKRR
Sequence of FGFR3 (h) (P22607 23-806): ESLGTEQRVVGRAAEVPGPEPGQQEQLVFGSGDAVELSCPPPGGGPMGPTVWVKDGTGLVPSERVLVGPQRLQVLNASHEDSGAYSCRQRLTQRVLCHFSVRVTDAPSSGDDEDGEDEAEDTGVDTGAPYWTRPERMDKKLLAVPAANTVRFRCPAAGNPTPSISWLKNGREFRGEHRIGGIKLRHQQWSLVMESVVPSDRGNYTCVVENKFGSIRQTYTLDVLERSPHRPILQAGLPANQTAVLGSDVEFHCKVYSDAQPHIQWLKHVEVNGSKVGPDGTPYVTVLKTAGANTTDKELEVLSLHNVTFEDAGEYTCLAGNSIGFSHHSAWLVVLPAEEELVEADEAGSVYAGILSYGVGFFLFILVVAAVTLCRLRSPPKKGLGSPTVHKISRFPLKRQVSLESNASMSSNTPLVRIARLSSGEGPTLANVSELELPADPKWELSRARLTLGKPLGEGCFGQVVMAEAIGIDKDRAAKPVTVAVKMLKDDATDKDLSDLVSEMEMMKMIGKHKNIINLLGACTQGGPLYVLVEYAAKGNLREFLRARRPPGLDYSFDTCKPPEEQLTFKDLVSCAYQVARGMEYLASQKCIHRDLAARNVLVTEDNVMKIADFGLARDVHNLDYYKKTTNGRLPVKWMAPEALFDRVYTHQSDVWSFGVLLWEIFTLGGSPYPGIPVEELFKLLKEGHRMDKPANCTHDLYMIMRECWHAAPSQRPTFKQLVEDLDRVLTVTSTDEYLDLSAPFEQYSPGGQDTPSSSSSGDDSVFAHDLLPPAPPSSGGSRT

| Structure (SMILES) | IC50 (FGFR1 (h)) [nM] | IC50 (FGFR2 (h)) [nM] | IC50 (FGFR3 (h)) [nM] | IC50 (FGFR4 (h)) [nM] | IC50 (KDR (h)) [nM] | BAF3-FGFR1 (MIN IL3) pIC50 [1] | IC50 [2] [nM] | BAF3-FGFR3 (MIN IL3) pIC50 [3] | IC50 [4] [nM] | BAF3-KDR (MIN IL3) pIC50 [5] |
| --- | --- | --- | --- | --- | --- | --- | --- | --- | --- | --- |
| COCC(O)Cn1/c(=N/c2cc(OC)cc(OC)c2F)ccc2ncc(-c3cnn(C)c3)nc21 (single isomer, unassigned) [Compound 60] | 0.741 | 1 | 0.525 | 0.724 | 8.91 | 8.43 | > 10000 | 8.15 | > 10000 | 6.58 |
| COc1cc(OC)c(F)c(N(CC(O)COC(C)C)c2ccc3ncc(-c4cnn(CC(O)COC(C)C)c4)nc3n2)c1 (single isomer, unassigned) [Compound 252] | 1.95 | 5.37 | 4.07 | 5.13 | 49 | 7.14 | > 10000 | 7.42 | > 10000 | 5.67 |
| COc1cc(OC)c(F)c(N(C)c2ccc3ncc(-c4cnn(C)c4)nc3n2)c1F (single isomer, unassigned) [Compound 254] | 0.468 | 1.05 | 0.437 | 1 | 14.1 | 7.67 | > 10000 | 8.08 | > 10000 | 5.98 |
| COc1cc(OC)c(F)c(/N=c2\ccc3ncc(-c4cnn(C)c4)nc3n2C)c1F (single isomer, unassigned) [Compound 255] | 0.214 | 0.776 | 0.363 | 0.513 | 3.09 | 7.93 | > 10000 | 8.38 | > 10000 | 6.22 |
| COc1cc(OC)c(F)c(/N=c2\ccc3ncc(-c4cnn(C)c4)nc3n2CC2CC2)c1F (single isomer, unassigned) [Compound 267] | 0.977 | 4.27 | 2.4 | 1.48 | 12.6 | 7.98 | > 10000 | 8.16 | > 10000 | 6.37 |
| COc1cc(OC)c(F)c(N(CC2CC2)c2ccc3ncc(-c4cnn(C)c4)nc3n2)c1F (single isomer, unassigned) [Compound 268] | 0.912 | 2.82 | 1.86 | 2.57 | 12 | 7.44 | > 10000 | 7.74 | > 10000 | 5.55 |
| COc1cc(OC)c(F)c(N(CC(O)c2cnn(C)c2)c2ccc3ncc(-c4cnn(C)c4)nc3n2)c1 (stereo not drawn) [Compound 244] | 5.89 | 5.01 | 4.07 | 16.2 | 129 | 6.76 | > 10000 | 6.73 | > 10000 | 5.03 |
| COc1cc(OC)c(F)c(N(CC(C)(C)O)c2ccc3ncc(-c4cnn(C)c4)nc3n2)c1 [Compound 245] | 3.63 | 4.47 | 3.31 | 15.8 | 60.3 | 6.86 | > 10000 | 7.07 | > 10000 | 5.33 |
| COc1cc(/N=c2\ccc3ncc(-c4cnn(C)c4)nc3n2CC(C)(C)O)c(F)c(OC)c1 [Compound 246] | 0.603 | 1.51 | 0.794 | 2.09 | 7.59 | 7.25 | > 10000 | 7.53 | > 10000 | 5.83 |
